Experimental data published in the NIST ThermoML archive (doi:10.1021/je900194v).

Experiments:
[1] = xn = mol fraction of the nth substance listed; settings: 101 kPa, Liquid; for viscosity: Capillary tube (Ostwald / Ubbelohde) method; for mass density: Vibrating tube method
[2] = 101 kPa, Liquid; for mass density: Vibrating tube method; for viscosity: Capillary tube (Ostwald / Ubbelohde) method

COC(=O)CCCCl [methyl 4-chlorobutanoate] + Cc1ccccc1
[1]
Settings	mass density, 298.15 K [kg/m3]	mass density, 308.15 K [kg/m3]	mass density, 318.15 K [kg/m3]	viscosity, 298.15 K [mPa·s]	viscosity, 308.15 K [mPa·s]	viscosity, 318.15 K [mPa·s]
x1 = 0.1	891.28	881.71	872.09	0.614	0.551	0.486
x1 = 0.2	919.47	909.69	899.87	0.68	0.599	0.53
x1 = 0.3	946.73	936.79	926.77	0.753	0.662	0.582
x1 = 0.4001	973.21	963.07	952.89	0.829	0.731	0.635
x1 = 0.5	998.81	988.49	978.14	0.919	0.796	0.7
x1 = 0.6	1023.69	1013.23	1002.74	1.021	0.883	0.767
x1 = 0.7	1047.84	1037.22	1026.57	1.123	0.962	0.831
x1 = 0.8	1071.31	1060.54	1049.74	1.246	1.062	0.913
x1 = 0.8998	1094.05	1083.16	1072.21	1.38	1.17	1.001
x1 = 1	1116.24	1105.22	1094.13	1.519	1.279	1.089

COC(=O)CCCCl [methyl 4-chlorobutanoate] + Cc1ccccc1C
[1]
Settings	mass density, 298.15 K [kg/m3]	mass density, 308.15 K [kg/m3]	mass density, 318.15 K [kg/m3]	viscosity, 298.15 K [mPa·s]	viscosity, 308.15 K [mPa·s]	viscosity, 318.15 K [mPa·s]
x1 = 0.1	899.36	890.63	881.84	0.814	0.71	0.627
x1 = 0.2001	923.55	914.54	905.46	0.872	0.757	0.688
x1 = 0.3	947.67	938.39	929.03	0.935	0.808	0.707
x1 = 0.3998	971.75	962.19	952.59	1.001	0.863	0.752
x1 = 0.4992	995.83	985.99	976.14	1.074	0.92	0.8
x1 = 0.6	1020.27	1010.17	1000.07	1.153	0.983	0.855
x1 = 0.7	1044.53	1034.19	1023.83	1.235	1.05	0.907
x1 = 0.8	1068.71	1058.13	1047.53	1.322	1.12	0.965
x1 = 0.9	1092.68	1081.88	1071.02	1.415	1.194	1.025
x1 = 1	1116.24	1105.22	1094.13	1.519	1.279	1.089

COC(=O)CCCCl [methyl 4-chlorobutanoate] + c1ccccc1
[1]
Settings	mass density, 298.15 K [kg/m3]	mass density, 308.15 K [kg/m3]	mass density, 318.15 K [kg/m3]	viscosity, 298.15 K [mPa·s]	viscosity, 308.15 K [mPa·s]	viscosity, 318.15 K [mPa·s]
x1 = 0.1	905.57	894.74	883.87	0.669	0.579	0.507
x1 = 0.2001	935.29	924.42	913.49	0.731	0.634	0.553
x1 = 0.3	962.99	952.12	941.13	0.799	0.69	0.601
x1 = 0.4001	989.08	978.2	967.18	0.875	0.754	0.661
x1 = 0.5	1013.66	1002.77	991.75	0.96	0.828	0.719
x1 = 0.5999	1036.89	1026.01	1014.99	1.054	0.907	0.785
x1 = 0.7	1058.82	1047.97	1036.94	1.157	0.99	0.853
x1 = 0.8	1079.42	1068.49	1057.55	1.271	1.08	0.927
x1 = 0.9	1098.6	1087.62	1076.65	1.391	1.18	1.007
x1 = 1	1116.24	1105.22	1094.13	1.519	1.279	1.089

Cc1ccccc1 [toluene]
[2]
Settings	mass density [kg/m3]	viscosity [mPa·s]
298.15 K	862.18	–
308.15 K	852.81	0.499
318.15 K	843.4	0.446

Cc1ccccc1 [toluene] + COC(=O)CCCCl
[1], x2 = 0
Settings	mass density [kg/m3]	viscosity [mPa·s]
298.15 K	862.18	0.561
308.15 K	852.81	0.499
318.15 K	843.4	0.446
